Reference: US20240228506A1, “RIPK1 INHIBITORS AND METHODS OF USE” (Merck Sharp & Dohme LLC, priority 2021, published 2024)

Each compound was assayed against T1, GST-RIPK1 (recombinant GST-RIPK1 kinase domain (residues 1-327)) (Homo sapiens, UniProt Q13546) (assay: RIPK1-ADP-Glo enzymatic assay). Details: 25 nM GST-RIPK1, 300 μM ATP, 3 μM dephosphorylated-MBP; 30 minutes pre-incubation, 150 minutes reaction; ten-point titration.
T1 construct: recombinant GST-RIPK1 kinase domain (residues 1-327) enzyme; made in house; host or cells: baculovirus-transfected Sf21 insect cells
T1 sequence (Q13546 1-327): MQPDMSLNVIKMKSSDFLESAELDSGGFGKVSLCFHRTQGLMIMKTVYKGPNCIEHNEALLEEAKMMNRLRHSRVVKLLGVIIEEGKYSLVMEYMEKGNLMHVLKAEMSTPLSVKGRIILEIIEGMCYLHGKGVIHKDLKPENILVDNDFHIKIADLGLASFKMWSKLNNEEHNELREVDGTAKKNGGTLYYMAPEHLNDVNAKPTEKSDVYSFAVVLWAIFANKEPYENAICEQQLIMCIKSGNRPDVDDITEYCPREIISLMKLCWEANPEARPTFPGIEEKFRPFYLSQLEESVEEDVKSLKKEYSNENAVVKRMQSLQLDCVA
Assay type: biochemical
Summary of the method: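 Ten-point 1:3 titrations from 100000 nM, 1% DMSO, were preincubated 30 min with 25 nM GST-RIPK1 (1-327) before starting with 300 μM ATP plus 3 μM dephosphorylated MBP; 150 min reaction. ADP-Glo luminescence measured ATP-to-ADP conversion; EC50 by four-parameter sigmoidal regression.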

| IC50 | Compound |
| --- | --- |
| 41 nM | CCC(C)(C)C(=O)N1C[C@@H]2C[C@H]1c1cncc(Cl)c1O2 [Compound 2-9, 1-((2S,5S)-9-chloro-2,3-dihydro-2,5-methanopyrido[3,4-f][1,4]oxazepin-4(5H)-yl)-2,2-dimethylbutan-1-one] |
| 227 nM | CC1(C(=O)N2C[C@@H]3C[C@H]2c2cncc(Cl)c2O3)CCC1 [Compound 2-10, ((2S,5S)-9-chloro-2,3-dihydro-2,5-methanopyrido[3,4-f][1,4]oxazepin-4(5H)-yl)(1-methylcyclobutyl)methanone] |
| 57 nM | CC(F)(F)C1(C(=O)N2C[C@@H]3C[C@H]2c2cncc(Cl)c2O3)CCC1 [Compound 2-11, ((2S,5S)-9-chloro-2,3-dihydro-2,5-methanopyrido[3,4-f][1,4]oxazepin-4(5H)-yl)(1-(1,1-difluoroethyl)cyclobutyl) methanone] |
| 124 nM | O=C(N1C[C@@H]2C[C@H]1c1cncc(Cl)c1O2)C1(C(F)F)CCC1 [Compound 2-12, ((2S,5S)-9-chloro-2,3-dihydro-2,5-methanopyrido[3,4-f][1,4]oxazepin-4(5H)-yl)(1-(difluoromethyl)cyclobutyl) methanone] |
| 1100 nM | Cc1cncc2c1O[C@H]1C[C@@H]2N(C(=O)C(C)(C)C)C1 [Compound 2-13, 2,2-dimethyl-1-((2S,5S)-9-methyl-2,3-dihydro-2,5-methanopyrido[3,4-f][1,4]oxazepin-4(5H)-yl)propan-1-one] |
| 20 nM | O=C(N1C[C@@H]2C[C@H]1c1cncc(F)c1O2)C12CCC(C(F)(F)F)(CC1)C2 [Compound 2-14, ((2S,5S)-9-fluoro-2,3-dihydro-2,5-methanopyrido[3,4-f][1,4]oxazepin-4(5H)-yl)(4-(trifluoromethyl)bicyclo [2.2.1]heptan-1-yl)methanone] |
| 81 nM | O=C(N1C[C@@H]2C[C@H]1c1cncc(F)c1O2)C12CCC(F)(CC1)CC2 [Compound 2-15, ((2S,5S)-9-fluoro-2,3-dihydro-2,5-methanopyrido[3,4-f][1,4]oxazepin-4(5H)-yl)(4-fluorobicyclo[2.2.2]octan-1-yl)methanone] |
| 74 nM | CC(C)(C(=O)N1C[C@@H]2C[C@H]1c1cncc(F)c1O2)C1CC1 [Compound 2-16, 2-cyclopropyl-1-((2S,5S)-9-fluoro-2,3-dihydro-2,5-methanopyrido[3,4-f][1,4]oxazepin-4(5H)-yl)-2-methylpropan-1-one] |
| 50 nM | C#Cc1cncc2c1O[C@H]1C[C@@H]2N(C(=O)C(C)(C)C)C1 [Compound 2-17, 1-((2S,5S)-9-Ethynyl-2,3-dihydro-2,5-methanopyrido[3,4-f][1,4]oxazepin-4(5H)-yl)-2,2-dimethylpropan-1-one] |
| 72 nM | CC(C)(C)C(=O)N1C[C@@H]2C[C@H]1c1cncc(C#Cc3ccccc3)c1O2 [Compound 2-20, 2,2-Dimethyl-1-((2S,5S)-9-(phenylethynyl)-2,3-dihydro-2,5-methanopyrido[3,4-f][1,4]oxazepin-4(5H)-yl)propan-1-one] |
| 37 nM | O=C(N1C[C@@H]2C[C@H]1c1cncc(F)c1O2)C12CCC(CC1)C2 [Compound 2-21, bicyclo[2.2.1]heptan-1-yl((2S,5S)-9-fluoro-2,3-dihydro-2,5-methanopyrido[3,4-f][1,4]oxazepin-4(5H)-yl)methanone] |
| 67 nM | CC(F)(F)C(C)(C)C(=O)N1C[C@@H]2C[C@H]1c1cncc(F)c1O2 [Compound 2-22, 3,3-difluoro-1-((2S,5S)-9-fluoro-2,3-dihydro-2,5-methanopyrido[3,4-f][1,4]oxazepin-4(5H)-yl)-2,2-dimethylbutan-1-one] |
| 74 nM | CC1(C(=O)N2C[C@@H]3C[C@H]2c2cncc(F)c2O3)CCCC1 [Compound 2-23, ((2S,5S)-9-fluoro-2,3-dihydro-2,5-methanopyrido[3,4-f][1,4]oxazepin-4(5H)-yl)(1-methylcyclopentyl) methanone] |
| 111 nM | N#CC12CCC(C(=O)N3C[C@@H]4C[C@H]3c3cncc(F)c3O4)(C1)C2 [Compound 2-24, 4-((2S,5S)-9-fluoro-2,3,4,5-tetrahydro-2,5-methanopyrido[3,4-f][1,4]oxazepine-4-carbonyl)bicyclo[2.1.1] hexane-1-carbonitrile] |
| 79 nM | CC1(C(=O)N2C[C@@H]3C[C@H]2c2cncc(Cl)c2O3)CCCC1 [Compound 2-25, ((2S,5S)-9-chloro-2,3-dihydro-2,5-methanopyrido[3,4-f][1,4]oxazepin-4(5H)-yl)(1-methylcyclopentyl) methanone] |
| 87 nM | N#CC12CCC(C(=O)N3C[C@@H]4C[C@H]3c3cncc(Cl)c3O4)(C1)C2 [Compound 2-26, 4-((2S,5S)-9-chloro-2,3,4,5-tetrahydro-2,5-methanopyrido[3,4-f][1,4]oxazepine-4-carbonyl)bicyclo[2.1.1] hexane-1-carbonitrile] |
| 47 nM | Cc1ncc2c(c1F)O[C@H]1C[C@@H]2N(C(=O)C23CCC(C(F)(F)F)(CC2)C3)C1 [Compound 2-27, ((2S,5S)-9-Fluoro-8-methyl-2,3-dihydro-2,5-methanopyrido[3,4-f][1,4]oxazepin-4(5H)-yl)(4-(trifluoromethyl)bicyclo[2.2.1]heptan-1-yl)methanone] |
| 59 nM | Cc1ncc2c(c1F)O[C@H]1C[C@@H]2N(C(=O)C23CCC(F)(CC2)C3)C1 [Compound 2-28, ((2S,5S)-9-fluoro-8-methyl-2,3-dihydro-2,5-methanopyrido[3,4-f][1,4]oxazepin-4(5H)-yl)(4-fluorobicyclo[2.2.1]heptan-1-yl)methanone] |
| 124 nM | O=C(N1C[C@@H]2C[C@H]1c1cncc(Cl)c1O2)C12CCC(C1)C2 [Compound 2-29, bicyclo[2.1.1]hexan-1-yl((2S,5S)-9-chloro-2,3-dihydro-2,5-methanopyrido[3,4-f][1,4]oxazepin-4(5H)-yl)methanone] |
| 156 nM | O=C(N1C[C@@H]2C[C@H]1c1cncc(F)c1O2)C12CCC(C1)C2 [Compound 2-30, bicyclo[2.1.1]hexan-1-yl((2S,5S)-9-fluoro-2,3-dihydro-2,5-methanopyrido[3,4-f][1,4]oxazepin-4(5H)-yl)methanone] |
| 20 nM | O=C(N1C[C@@H]2C[C@H]1c1cncc(Cl)c1O2)C12CCC(CC1)C2 [Compound 2-31, Bicyclo[2.2.1]heptan-1-yl((2S,5S)-9-chloro-2,3-dihydro-2,5-methanopyrido[3,4-f][1,4]oxazepin-4(5H)-yl)methanone] |
| 167 nM | C#Cc1cncc2c1O[C@H]1C[C@@H]2N(C(=O)C(C)(C)C(F)F)C1 [Compound 2-32, 1-((2S,5S)-9-Ethynyl-2,3-dihydro-2,5-methanopyrido[3,4-f][1,4]oxazepin-4(5H)-yl)-3,3-difluoro-2,2-dimethylpropan-1-one] |
| 38 nM | C#Cc1cncc2c1O[C@H]1C[C@@H]2N(C(=O)C23CCC(C(F)(F)F)(CC2)C3)C1 [Compound 2-33, ((2S,5S)-9-ethynyl-2,3-dihydro-2,5-methanopyrido[3,4-f][1,4]oxazepin-4(5H)-yl)(4-(trifluoromethyl)bicyclo [2.2.1]heptan-1-yl)methanone] |
| 15 nM | CC(C)(C(=O)N1C[C@@H]2C[C@H]1c1cncc(C#Cc3ccc4nccnc4c3)c1O2)C(F)F [Compound 2-34, 3,3-Difluoro-2,2-dimethyl-1-((2S,5S)-9-(quinoxalin-6-ylethynyl)-2,3-dihydro-2,5-methanopyrido[3,4-f][1,4]oxazepin-4(5H)-yl)propan-1-one] |
| 176 nM | CC(C)(C)C(=O)N1C[C@@H]2C[C@H]1c1cncc(C#Cc3cc(C(F)(F)F)ccn3)c1O2 [Compound 2-35, 2,2-dimethyl-1-((2S,5S)-9-((4-(trifluoromethyl)pyridin-2-yl)ethynyl)-2,3-dihydro-2,5-methanopyrido[3,4-f][1,4]oxazepin-4(5H)-yl)propan-1-one] |
| 525 nM | CC(C)(C)C(=O)N1C[C@@H]2C[C@H]1c1cncc(C#CC(O)(c3ccccc3)C(F)(F)F)c1O2 (stereo partly drawn) [Compound 2-36, 2,2-dimethyl-1-((2S,5S)-9-(4,4,4-trifluoro-3-hydroxy-3-phenylbut-1-yn-1-yl)-2,3-dihydro-2,5-methanopyrido[3,4-f][1,4]oxazepin-4(5H)-yl)propan-1-one] |
| 47 nM | CC(C)(C)C(=O)N1C[C@@H]2C[C@H]1c1cncc(C#Cc3ccc(OC(F)(F)F)cc3)c1O2 [Compound 2-37, 2,2-dimethyl-1-((2S,5S)-9-((4-(trifluoromethoxy)phenyl)ethynyl)-2,3-dihydro-2,5-methanopyrido[3,4-f][1,4]oxazepin-4(5H)-yl)propan-1-one] |
| 25 nM | COc1ccc2cc(C#Cc3cncc4c3O[C@H]3C[C@@H]4N(C(=O)C(C)(C)C)C3)ccc2c1 [Compound 2-38, 1-((2S,5S)-9-((6-methoxynaphthalen-2-yl)ethynyl)-2,3-dihydro-2,5-methanopyrido[3,4-f][1,4]oxazepin-4(5H)-yl)-2,2-dimethylpropan-1-one] |
| 24 nM | CC(C)(C(=O)N1C[C@@H]2C[C@H]1c1cncc(C#Cc3ccnc(N)c3)c1O2)C(F)F [Compound 2-39, 1-((2S,5S)-9-((2-aminopyridin-4-yl)ethynyl)-2,3-dihydro-2,5-methanopyrido[3,4-f][1,4]oxazepin-4(5H)-yl)-3,3-difluoro-2,2-dimethylpropan-1-one] |
